We go through two compounds from patent US8580856B2, “Acetaminophen/ibuprofen combinations and method for their use” (McNeil-PPC, Inc., priority 2006, dated 2013).

In this assay the test system is CO2-laser-induced painful stimulus on UV(B) irradiated skin. As to the kind of experiment: Laser somatosensory evoked potentials (LSEP) analgesia study, peak-to-peak amplitude. Type of assay: in vivo, human. The conditions noted are these: for Estimate (difference between Treatment A and Treatment B), peak-to-peak LSEP amplitude: single oral dose, 24 subjects, cross-over; for Analgesic effectiveness versus placebo (peak-to-peak LSEP amplitudes), in words: FIG. 1 and Table C. The procedure: General Timing of Study: Each subject was treated on six different treatment days in a randomized, placebo-controlled, double-blind six sequence cross-over study, with each treatment being a different dosage combination of acetaminophen (“APAP”) and ibuprofen (“IBU”) administered in a random order. The total duration of the study per subject was about 46 days. The washout period between the six treatment days was about 7 days. About 2 to 14 days before receiving the first treatment, each subject participated in a one-day, pre-study examination visit.
On each treatment day, each subject stayed for approximately 7 hours at the treatment center, and followed the schedule set forth below in Table A:
Method of Pain Induction: A pulsed CO2 laser, which is commercially available from Synrad, Inc., under the tradename, “Synrad Infrared Gas Laser,” model E48−/−26W was used to induce painful stimuli in the desired skin location.
Evaluation of Pain Relief: Laser induced somatosensory evoked potentials (LSEPs), which served as an objective-quantitative measurement of pain, were generating using Vertex-EEG readings collected using a MUX800/UBV800 Multiplexer and universal bio-amplifier with integrated 15 Hz-impedance measurement, both of which are commercially available from Rimkus Medizintechnik. Twelve artifact free EEG-sections of 3 second duration were averaged in two steps: (1.) 3×4 original sweeps; and (2.) 3×1 averaged sweeps, digitally filtered (Gaussian phase-free software filter on the basis of a Fast Fourier Transform (FFT), with ranges from 1.0 Hz to 12.5 Hz (first step) and 1.5 to 10.0 Hz (second step)). Means were analyzed for a time window of 600 ms after laser stimulation to identify and measure the components of the evoked potentials (latencies and amplitudes). The N1 and P2 components, which are the pain related components of the EEG-signal, were derived as described above and analyzed in accordance with the procedure set forth in Schaffler K., et al., “Analgesic effects of low-dose intravenous orphenadrine in the state of capsaicin hyperalgesia. A randomised, placebo-controlled, double-blind cross-over study using laser somatosensory evoked potentials obtained from capsaicin-irritated skin in healthy volunteers,” 54(10) Arzneimittel-Forschung. 673-9 (2004). The N1-P2-peak-to peak amplitudes as well as the amplitudes of the individual N1 and P2 components were determined from the Vertex-EEG reading, and the correlated pain response was thereby determined in accordance with the procedure generally set forth in Seibel, K., et al., “Comparison of Two Different Preparations of Ibuprofen with Regard to the Time Course of their Analgesic Effect,” 54(8) Arnzeimittel-Forschung 444-51 (2004). The LSEP recording at hour −2:05 served as baseline (=t0). Drug induced analgesia was reflected by an amplitude reduction versus control or comparator treatment.
According to this procedure, a change in LSEP amplitude of about 1.0 to 3.0 μV was previously determined to be generally sufficient to allow for statistically significant discrimination between, for example, a given active agent vs. placebo, vs. other active agents, and/or vs. different dosages of the same active agent. An amplitude difference in the LSEP that exceeds about 2.0-2.5 μV (in peak-to-peak (PtP) amplitude) and > about 1.00-1.25 μV (for the single N1- and P2-components) was defined as clinically relevant.
The procedure set forth in Example 1 was independently performed on 24 subjects in a randomized, placebo-controlled, double-blind 6 sequence cross-over study. The six ibuprofen/acetaminophen treatments administered on the treatment days consisted of two white caplets and 4 red tablets comprised of the doses set forth in Table B: […]

Where [1] appears, read: Treatment B = Placebo, over the treatment period.

For the compound `CC(C)Cc1ccc(C(C)C(=O)O)cc1` (centres unmarked) [IBU 400 mg, ibuprofen], the “Analgesic effectiveness versus placebo (peak-to-peak LSEP amplitudes), in words” value is reported as “significantly more effective analgesics than the placebo”. The “Estimate (difference between Treatment A and Treatment B), peak-to-peak LSEP amplitude” value under setting [1] was −4.4134.

Regarding `CC(=O)Nc1ccc(O)cc1` [APAP 1000 mg, acetaminophen], the “Analgesic effectiveness versus placebo (peak-to-peak LSEP amplitudes), in words” value is “significantly more effective analgesics than the placebo”. Besides, the “Estimate (difference between Treatment A and Treatment B), peak-to-peak LSEP amplitude” value (Treatment B = APAP250 + IBU300) is 1.6417. For the same compound, the “Estimate (difference between Treatment A and Treatment B), peak-to-peak LSEP amplitude” value (Treatment B = APAP500 + IBU200) is on record as 1.5389. In addition, the “Estimate (difference between Treatment A and Treatment B), peak-to-peak LSEP amplitude” value (Treatment B = APAP750 + IBU100) is on record as 2.7487. Besides, the “Estimate (difference between Treatment A and Treatment B), peak-to-peak LSEP amplitude” value (Treatment B = IBU400) is 0.01133. Besides, under setting [1], the “Estimate (difference between Treatment A and Treatment B), peak-to-peak LSEP amplitude” value is −4.4020.
